Values of other authors as cited in US20070065414A1, “Enhanced delivery of cells” (Boston Scientific Scimed, Inc., priority 2005, published 2007).

Details: general statement, no experiment described

Nc1ncnc2c1ncn2[C@@H]1O[C@H](CO)[C@@H](O)[C@H]1O [Adenosine, adenosine]
blood pool half-life: only a few seconds
